Each sequence was assayed on primary human T cells (assay: Genome-wide SLICE pooled CRISPR screen: CFSE-sorted proliferation after TCR stimulation). Details: log2 fold-change of sgRNA, dividing over non-dividing cells; positive hits from GW screen.
Type: cell-based
Source text: To take full advantage of this platform, we scaled-up from the targeted pilot screen to genome-wide (GW) scale (Doench et al., 2016), transducing a library of 77,441 sgRNAs (19,114 genes) into T cells from two healthy donors. After confirming successful transduction of these primary human T cells (FIG. 8,A-B), the cells were re-stimulated and then FACS sorted into non-proliferating and highly-proliferating populations based on CFSE levels (FIG. 8C and Experimental Procedures). MAGeCK software (Li et al., 2014) was used to systematically identify genes that are positively or negatively selected in the proliferating population of T cells. Top positive and negative regulators from the pilot screen were confirmed in both biological replicates of the GW screen along with numerous other hits (FIG. 2A, B). To hone the list of top candidates, we performed an independent secondary screen in cells from two additional human blood donors. The results were well correlated between the primary and secondary screens (FIG. 2C). Furthermore, integrated analysis of the two independent screens performed on a total of four human blood donors provided improved power for target discovery, particularly for negative regulators of T cell proliferation (FIG. 8D). To confirm that hits are in fact dependent on TCR stimulation, we performed GW screens with increasing levels of TCR stimulation. […] The observed dose-response confirmed that the majority of the screen hits are dependent on the TCR stimulus and serve to tune resulting proliferative responses. Taken together these screens identified dozens of genetic perturbations that positively and negatively modulate T cell proliferation.
24 hours post stimulation, lentivirus was added directly to cultured T cells at a 1:300 v/v ratio and gently mixed by tilting. Following 24 hours, cells were collected, pelleted, and resuspended in Lonza electroporation buffer P3 (Lonza, Cat #V4XP-3032) at 20e6 cells/100 μl. Next, Cas9 protein (MacroLab, Berkeley, 40 μM stock) was added to cell suspension at 1:10 v/v ratio. Cells were electroporated at 20e6 cells per cuvette using the pulse code EH115 (Lonza, cat #VVPA-1002). The total number of cells for electroporation was scaled as required. Immediately after electroporation, 1 mL of pre-warmed media was added to each cuvette and cuvettes were placed at 37 degrees for 20 minutes. Cells were then transferred to culture vessels in X-Vivo media containing 50 U/ml IL-2 at 1e6 cells/ml in appropriate tissue culture vessels. Cells were expanded every two days, adding fresh media with IL-2 at 50 U/ml and maintaining the cell density at 1e6 cells/ml.
Cultured cells were collected, spun, washed with PBS, and then resuspended at 1-10 million cells/ml in PBS. CFSE (Biolegend, Cat #423801) was prepared per the manufacturer's protocol to make a 5 mM stock solution in DMSO. This stock solution was diluted 1:1000 in PBS for a 5 μM working solution, and then added in a 1:1 v/v ratio to cell suspension. After mixing, cells were incubated for 5 minutes in the dark at room temperature. The stain was then quenched with a volume of media that was at least 5× the stain volume (e.g. 2 ml+10 ml), and incubated for one minute at room temperature in the dark. Cells were then spun down and resuspended in media prior to restimulation.
PBMCs from multiple human healthy human donors were isolated from TRIMA residuals (see methods). TRIMA residuals were purchased from Blood Centers of the Pacific. After CD8 T cells isolation as above (Day 0), cells were rested in X-Vivo media overnight and then stimulated with plate-bound anti-human CD3/CD28 and IL-2 at 50 U/mL the following day (Day 1). 24 hours after stimulation (Day 2), cells were transduced with concentrated lentivirus encoding the pooled sgRNA library (see methods). […] after transduction (Day 3), cells were electroporated with CAS9 protein (methods). […]
For “GAGCAGCGGCTGTACAAGGT (listed as DNA, chemistry not fully specified) [SEQ ID NO: 32, sgRNA targeting TCEB2]”, the “LFC (~effect magnitude)” value was 1.0955. In the case of “CTCTCCTCAGTACCACAGCA (listed as DNA, chemistry not fully specified) [SEQ ID NO: 19, sgRNA targeting DGKZ]”, the “LFC (~effect magnitude)” value is reported as 0.6587. In the case of “AAGCGTCAAAAGTCTGCCAG (chemistry not given here) [SEQ ID NO: 9, sgRNA targeting CD5]”, the “LFC (~effect magnitude)” value is reported as 0.5512. “GAATAAGATGTTCTACGCCG (listed as DNA, chemistry not fully specified) [SEQ ID NO: 17, sgRNA targeting DGKZ]” was tested, and the “LFC (~effect magnitude)” value was 0.6282. With “TTAGCATCAAGGCATGCCAT (listed as DNA, chemistry not fully specified) [SEQ ID NO: 26, sgRNA targeting RASA2]” the “LFC (~effect magnitude)” value was 0.7258. “AGAGCATTATGGGCAGACAG (listed as DNA, chemistry not fully specified) [SEQ ID NO: 22, sgRNA targeting GNA13]” was tested, and the “LFC (~effect magnitude)” value was 0.3825. For “TATGCCATGAGTGCTCAGAG (listed as DNA, chemistry not fully specified) [SEQ ID NO: 37, sgRNA targeting TNFAIP3]”, the “LFC (~effect magnitude)” value was 0.651. With “CCTGTACCCGAATAACCATG (listed as DNA, chemistry not fully specified) [SEQ ID NO: 4, sgRNA targeting ARIH2]” the “LFC (~effect magnitude)” value was 0.3813. In the case of “GGGCCCCCAGTAGAATCCGC (listed as DNA, chemistry not fully specified) [SEQ ID NO: 29, sgRNA targeting SOCS1]”, the “LFC (~effect magnitude)” value is reported as 1.2551. With “GGGCAAGTACGAGTGGCAAG (chemistry not given here) [SEQ ID NO: 13, sgRNA targeting CDKN1B]” the “LFC (~effect magnitude)” value was 0.9886. With “TGAGGAGTACAAGCACCGCA (listed as DNA, chemistry not fully specified) [SEQ ID NO: 35, sgRNA targeting TMEM222]” the “LFC (~effect magnitude)” value was 1.3341. In the case of “TGTGGGATGTCGACTCCTAG (chemistry not given here) [SEQ ID NO: 7, sgRNA targeting CBLB]”, the “LFC (~effect magnitude)” value is reported as 0.7876. For “ACGGACATGAAGCAATATCA (listed as DNA, chemistry not fully specified) [SEQ ID NO: 34, sgRNA targeting TMEM222]”, the “LFC (~effect magnitude)” value was 1.0461. “CTTGGCGTCCGTGAAGATGG (listed as DNA, chemistry not fully specified) [SEQ ID NO: 33, sgRNA targeting TCEB2]” was tested, and the “LFC (~effect magnitude)” value was 0.6135. “GAGAACCTCGGAACATACGG (listed as DNA, chemistry not fully specified) [SEQ ID NO: 28, sgRNA targeting SMARCB1]” was tested, and the “LFC (~effect magnitude)” value was 0.6271. With “CGTGCTGGTGGTTCGCCACG (listed as DNA, chemistry not fully specified) [SEQ ID NO: 39, sgRNA targeting UBASH3A]” the “LFC (~effect magnitude)” value was 1.0191. “AGATATCACACATTACAGTG (listed as DNA, chemistry not fully specified) [SEQ ID NO: 25, sgRNA targeting RASA2]” was tested, and the “LFC (~effect magnitude)” value was 0.861. “AGGATCGACTTGTGGAACAA (listed as DNA, chemistry not fully specified) [SEQ ID NO: 27, sgRNA targeting RASA2]” was tested, and the “LFC (~effect magnitude)” value was 0.4134. For “TGGACCACGAAGAGTTAACC (chemistry not given here) [SEQ ID NO: 14, sgRNA targeting CDKN1B]”, the “LFC (~effect magnitude)” value was 0.8112. In the case of “CAGCACTAGCAGTGGCACGG (chemistry not given here) [SEQ ID NO: 15, sgRNA targeting DGKA]”, the “LFC (~effect magnitude)” value is reported as 0.722. “GACTCACTGAGACAAAGTAG (listed as DNA, chemistry not fully specified) [SEQ ID NO: 36, sgRNA targeting TMEM222]” was tested, and the “LFC (~effect magnitude)” value was 0.8727. For “GAACGCGCTGAGAGTCCGTG (listed as DNA, chemistry not fully specified) [SEQ ID NO: 3, sgRNA targeting AGO1]”, the “LFC (~effect magnitude)” value was 0.8318. With “CCACTTGTTAACAGAGACCG (listed as DNA, chemistry not fully specified) [SEQ ID NO: 38, sgRNA targeting TNFAIP3]” the “LFC (~effect magnitude)” value was 0.633. “CAAGTACCGACGCGCCAGCG (listed as DNA, chemistry not fully specified) [SEQ ID NO: 23, sgRNA targeting MEF2D]” was tested, and the “LFC (~effect magnitude)” value was 0.7255. For “CCCCGTGCAGCGAGTCAGAG (listed as DNA, chemistry not fully specified) [SEQ ID NO: 18, sgRNA targeting DGKZ]”, the “LFC (~effect magnitude)” value was 0.4938. For “CTCCCAAACTGACCTCTAGG (listed as DNA, chemistry not fully specified) [SEQ ID NO: 16, sgRNA targeting DGKA]”, the “LFC (~effect magnitude)” value was 0.7081. In the case of “TGCACAGAACTATCGTACCA (listed as DNA, chemistry not fully specified) [SEQ ID NO: 5, sgRNA targeting CBLB]”, the “LFC (~effect magnitude)” value is reported as 1.9597. For “AGGTTCCAGGTCCGATCCAG (listed as DNA, chemistry not fully specified) [SEQ ID NO: 10, sgRNA targeting CD8A]”, the “LFC (~effect magnitude)” value was 0.8084. With “CGGCTCAGCTGGTATGACCC (chemistry not given here) [SEQ ID NO: 8, sgRNA targeting CD5]” the “LFC (~effect magnitude)” value was 1.4145. In the case of “AGTTCTACTACAGACCCCCG (chemistry not given here) [SEQ ID NO: 12, sgRNA targeting CDKN1B]”, the “LFC (~effect magnitude)” value is reported as 0.8623. “TTCCGCAAAATAGAGCCCCA (listed as DNA, chemistry not fully specified) [SEQ ID NO: 6, sgRNA targeting CBLB]” was tested, and the “LFC (~effect magnitude)” value was 1.5917. In the case of “CATCATCCCTCACGGACCCG (listed as DNA, chemistry not fully specified) [SEQ ID NO: 24, sgRNA targeting MEF2D]”, the “LFC (~effect magnitude)” value is reported as 0.46. With “CCGCTTTCCAGTGACCGACG (listed as DNA, chemistry not fully specified) [SEQ ID NO: 21, sgRNA targeting FIBP]” the “LFC (~effect magnitude)” value was 0.5586. With “AGGCTCCAGGAATGTCCGCG (listed as DNA, chemistry not fully specified) [SEQ ID NO: 20, sgRNA targeting DGKZ]” the “LFC (~effect magnitude)” value was 0.4227. With “CGGCGTGCGAACGGAATGTG (listed as DNA, chemistry not fully specified) [SEQ ID NO: 31, sgRNA targeting SOCS1]” the “LFC (~effect magnitude)” value was 0.7842. With “CCAGTACAAACCCCAGAACG (listed as DNA, chemistry not fully specified) [SEQ ID NO: 40, sgRNA targeting UBASH3A]” the “LFC (~effect magnitude)” value was 0.6566. “GCAGGAAGACCGGCACGAAG (listed as DNA, chemistry not fully specified) [SEQ ID NO: 11, sgRNA targeting CD8A]” was tested, and the “LFC (~effect magnitude)” value was 0.6365. In the case of “CGAAAAAGCAGTTCCGCTGG (listed as DNA, chemistry not fully specified) [SEQ ID NO: 30, sgRNA targeting SOCS1]”, the “LFC (~effect magnitude)” value is reported as 0.6088.
